Key:
Format in all cases: biochemical, Myceliophthora thermophila C1
EG2 = experiment: Saccharification of microcrystalline cellulose by purified cellulase with gluconolactone; conditions: 10 g/L gluconolactone; MCC, 50° C., 72 hrs
Method: (§1) Purified Bgl1, Eg5, Eg6, CBH1, CBH2, and CBH4 from M. thermophila C1 were used to determine the level of inhibition by gluconolactone. For Bgl1, cellobiase activity was assayed by the following procedure: 0.4 ml of 2.5 mM cellobiose solution (in 0.1 M Na-acetate with pH 4.5, 5.0 or 6.0) was incubated during 5 min at 50° C. (with or without gluconolactone), then 0.1 ml of the enzyme (bgl1 from C1) solution was added (the dilution of the enzyme chosen at such a concentration in order to achieve 10% of cellobiose hydrolysis in 15 min, which is 0.072 g/L of glucose released). After 5, 10 and 15 min of incubation at […], 0.1 ml of the reaction mixture was sampled and glucose concentration was determined immediately by the glucose oxidase-peroxidase assay (Megazymes). Gluconolactone (Sigma-Aldrich) was added in the reaction mixture at concentrations between 0-10 g/L (0, 0.04, 0.08, 0.1, 0.2, 0.3, 0.6, 0.8, 1, 2, 4, 5, 8 and 10 g/L).
(§2) For C1 cellulases Eg2, Eg5, Eg6, CBH1, CBH2, CBH4, the effect of 10 g/L gluconolactone on the saccharification of microcrystalline cellulose (“MCC”) at 50° C. was determined after 72 hrs.

CBH2 = experiment: as above; conditions: 10 g/L gluconolactone; MCC, 50° C., 72 hrs
Method: as §1, §2

CBH1 = experiment: as above; conditions: 10 g/L gluconolactone; MCC, 50° C., 72 hrs
Method: as §1, §2

EG5 = experiment: as above; conditions: 10 g/L gluconolactone; MCC, 50° C., 72 hrs
Method: as §1, §2

CBH4 = experiment: as above; conditions: 10 g/L gluconolactone; MCC, 50° C., 72 hrs
Method: as §1, §2

M. thermophila C1 BGl1 = experiment: Cellobiase activity of Bgl1 with or without gluconolactone; conditions: gluconolactone above 0.1 g/L; pH 4.5, 5.0 and 6.0
Method: as §1, §2

O=C1O[C@H](CO)[C@@H](O)[C@H](O)[C@H]1O [gluconolactone]
Remaining activity (EG2): 28%
Remaining activity (CBH2): 13%
Remaining activity (CBH1): 14%
Remaining activity (EG5): 65%
Remaining activity (CBH4): 33%
inhibition of cellobiase activity (M. thermophila C1 BGl1): completely inhibited

From patent US20130280764A1, “METHOD OF IMPROVING THE ACTIVITY OF CELLULASE ENZYME MIXTURES IN THE SACCHARIFICATION (LIGNO)CELLULOSIC MATERIAL” (DYADIC INTERNATIONAL (USA) LTD., priority 2012, published 2013)
